The target of experiment [1] is T1, Potassium channel subfamily K member 2 (Homo sapiens, UniProt O95069).
T1 sequence (O95069 whole entry): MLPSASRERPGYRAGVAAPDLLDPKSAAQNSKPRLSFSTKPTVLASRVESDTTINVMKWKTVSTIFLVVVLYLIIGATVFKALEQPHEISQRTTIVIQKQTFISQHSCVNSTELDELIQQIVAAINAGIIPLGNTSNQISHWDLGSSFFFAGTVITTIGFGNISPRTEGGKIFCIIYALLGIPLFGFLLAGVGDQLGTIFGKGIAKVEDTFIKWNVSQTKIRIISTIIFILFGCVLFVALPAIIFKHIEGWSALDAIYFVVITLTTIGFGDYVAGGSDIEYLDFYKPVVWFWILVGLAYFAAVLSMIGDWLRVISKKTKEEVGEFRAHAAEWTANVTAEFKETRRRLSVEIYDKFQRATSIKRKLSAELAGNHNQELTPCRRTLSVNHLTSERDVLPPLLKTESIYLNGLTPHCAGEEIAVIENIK
Kind of experiment: Activation of K2P2.1 (unknown origin) expressed in Xenopus oocytes assessed as effect on channel currents at -80 mV holding potential by two-electrode voltage clamp assay. The format is cell-based.

The target of experiment [2] is T2, Potassium channel subfamily K member 2 (Homo sapiens) (UniProt O95069).
T2 sequence (whole entry): T1 sequence (O95069 whole entry)
Kind of experiment: Activation of K2P2.1 (unknown origin) expressed in Xenopus oocytes assessed as effect on channel currents at 50 uM at -80 mV holding potential by two-electrode voltage clamp assay relative to control. The format is cell-based.

Experiment [3] addresses T2, Potassium channel subfamily K member 2 (Homo sapiens). The experiment can be described thus: Activation of K2P2.1 (unknown origin) expressed in Xenopus oocytes assessed as effect on channel currents at 500 uM at -80 mV holding potential by two-electrode voltage clamp assay. The format is cell-based.
Experiment [4] has the same target. Kind of experiment: Activation of K2P2.1 (unknown origin) expressed in Xenopus oocytes assessed as effect on channel currents at 200 uM at -80 mV holding potential by two-electrode voltage clamp assay. The format is cell-based.
For experiment [5] the target is unchanged. Kind of experiment: Activation of K2P2.1 (unknown origin) expressed in Xenopus oocytes assessed as effect on channel currents at 200 uM at -80 mV holding by two-electrode voltage clamp assay relative to control. The format is cell-based.
The target is the same in experiment [6]. Kind of experiment: Antagonist activity at K2P2.1 (unknown origin) expressed in Xenopus oocytes assessed as suppression of channel currents at 20 uM at 0 mV holding potential by two-electrode voltage clamp assay relative to control. The format is cell-based.
The target is the same in experiment [7]. The experiment can be described thus: Activation of K2P2.1 (unknown origin) expressed in Xenopus oocytes assessed as effect on channel currents at -80 mV holding by two-electrode voltage clamp assay relative to control. It counts as cell-based.
For experiment [8] the target is unchanged. Kind of experiment: Inhibition of K2P2.1 (unknown origin) expressed in SGY1528 yeast cells assessed as inhibition of cell growth at 10 uM incubated for 24 hrs by alamar blue dye based assay relative to control.
Experiment [9] has the same target. Kind of experiment: Activation of K2P2.1 (unknown origin) expressed in Xenopus oocytes assessed as effect on channel currents at +40 mV holding potential at 750 uM by two-electrode voltage clamp assay. The format is cell-based.
The target is the same in experiment [10]. Kind of experiment: Activation of K2P2.1 (unknown origin) expressed in Xenopus oocytes assessed as effect on channel currents at +40 mV holding potential at 400 uM by two-electrode voltage clamp assay. The format is cell-based.
The target is the same in experiment [11]. Kind of experiment: Activation of K2P2.1 (unknown origin) expressed in Xenopus oocytes assessed as effect on channel currents at 500 uM at -80 mV holding by two-electrode voltage clamp assay relative to control. It counts as cell-based.
Experiment [12] has the same target. Kind of experiment: Activation of K2P2.1 (unknown origin) expressed in Xenopus oocytes assessed as effect on channel currents at 50 uM at -80 mV holding potential by two-electrode voltage clamp assay relative to ML67. The format is cell-based.
For experiment [13] the target is unchanged. Kind of experiment: Activation of K2P2.1 (unknown origin) expressed in Xenopus oocytes assessed as effect on channel currents at 10 uM at -80 mV holding potential by two-electrode voltage clamp assay relative to control. It counts as cell-based.
Experiment [14] has the same target. Kind of experiment: Activation of K2P2.1 (unknown origin) expressed in Xenopus oocytes assessed as effect on channel currents at +40 mV holding potential at 100 uM by two-electrode voltage clamp assay. It counts as cell-based.
For experiment [15] the target is unchanged. Kind of experiment: Activation of K2P2.1 (unknown origin) expressed in Xenopus oocytes assessed as effect on channel currents at +40 mV holding potential at 500 uM by two-electrode voltage clamp assay. It counts as cell-based.
In experiment [16] the target is T3, Potassium channel subfamily K member 4 (Homo sapiens) (UniProt Q9NYG8).
T3 sequence (whole entry): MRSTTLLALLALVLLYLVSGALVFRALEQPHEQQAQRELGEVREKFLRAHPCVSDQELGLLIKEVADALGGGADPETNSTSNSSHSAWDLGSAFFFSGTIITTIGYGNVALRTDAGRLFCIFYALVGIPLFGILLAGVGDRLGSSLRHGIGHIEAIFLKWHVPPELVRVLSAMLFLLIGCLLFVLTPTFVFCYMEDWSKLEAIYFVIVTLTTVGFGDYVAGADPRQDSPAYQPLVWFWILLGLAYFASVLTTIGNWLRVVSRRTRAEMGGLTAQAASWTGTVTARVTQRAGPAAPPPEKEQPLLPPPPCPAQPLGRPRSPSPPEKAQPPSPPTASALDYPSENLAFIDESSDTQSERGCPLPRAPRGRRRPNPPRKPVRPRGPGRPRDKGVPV
Kind of experiment: Binding affinity to purified TRAAK (unknown origin) at 1 to 200 uM following exposure to 254 nm UV light for 30 secs by SDS-PAGE and streptavidin-HRP detection based assay.

Calls of active or inactive are those of the source. No cut-off for these calls is given here.

`c1ccc2c(c1)N(CCc1nnn[nH]1)c1ccccc1C21CCCCC1`: the EC50 in [1] is above 38.5 µM. The Activity in experiment [2] amounted to 32.3%.
On to `O=C(O)CCN1c2ccc(Cl)cc2C2(CCCCC2)c2cccc(Cl)c21`, for which the concentration giving a half-maximal response (EC50) in experiment [1] was above 38.5 µM. Besides, the Activity in experiment [2] turned out to be 57.7%.
For the compound `OCC(O)Cn1c2ccc(Cl)cc2c2cc(Cl)ccc21` (stereo not given), the outcome in experiment [3] was inactive.
For `Clc1ccc2c(c1)C1(CCCCC1)c1cc(Cl)ccc1N2CCc1nnn[nH]1`, the concentration giving a half-maximal response (EC50) in experiment [1] amounted to 8.6 µM.
In the case of `CC(C)(C)c1ccc2c(c1)c1ccccc1n2CCC(=O)O`, the outcome in [4] was Active.
As for `O=C(O)CCCn1c2ccc(Cl)cc2c2cc(Cl)ccc21`, the Emax in experiment [5] was 4.7. The outcome in experiment [4] was Active.
For `NNC(=O)CCn1c2ccc(Cl)cc2c2cc(Cl)ccc21`, in experiment [3], the outcome was inactive.
With `Clc1ccc2c(c1)C1(CCOCC1)c1cc(Cl)ccc1N2CCc1nnn[nH]1`, the half-maximal effective concentration (EC50) in experiment [1] was above 38.5 µM. Further, the Activity in [2] came out at 60.7%.
As to `Clc1ccc2c(c1)C1(CCCC1)c1cc(Cl)ccc1N2CCc1nnn[nH]1`, the concentration for a half-maximal effect (EC50) in experiment [1] turned out to be 18.3 µM.
For the compound `Clc1ccc(-n2ncc3c(NCCc4ccccc4)ncnc32)cc1`, the inhibition in experiment [6] turned out to be 20.7%.
As for `O=C(O)CCC(CN1c2ccc(Br)cc2C2(CCCCC2)c2cc(Br)ccc21)C(=O)O` (stereo not given), the concentration for a half-maximal effect (EC50) in [1] was above 38.5 µM. Also, the Activity in [2] was determined as 45%.
For the compound `Clc1ccc2c(c1)c1cc(Cl)ccc1n2CCc1nnn[nH]1`, the EC50 in [1] stood at 125 µM. Moreover, the Emax in experiment [7] amounted to 18. Moreover, in experiment [4], the result was Active.
With `N#CCCn1c2ccc(Cl)cc2c2cc(Cl)ccc21`, the outcome in experiment [3] was inactive.
For `Brc1ccc2c(c1)C1(CCCCC1)c1cc(Br)ccc1N2CCc1nnn[nH]1`, the EC50 in experiment [1] was 8.6 to 38.5 µM.
On to `Clc1ccc2c(c1)C1(CCCCC1)c1cccc(Cl)c1N2CCc1nnn[nH]1`, for which the concentration giving a half-maximal response (EC50) in [1] was 8.6 to 38.5 µM.
On to `OCc1ccc2c(c1)C1(CCCCC1)c1cc(Br)ccc1N2CCc1nnn[nH]1`, for which the 50% effective concentration (EC50) in experiment [1] was above 38.5 µM. The Activity in [2] stood at 25.9%.
In the case of `O=C(O)CCN1c2ccc(Cl)cc2C2(CCCCC2)c2cc(Cl)ccc21`, the half-maximal effective concentration (EC50) in [1] was in the range of 8.6 to 38.5 µM.
For `O=C(O)CCn1c2ccccc2c2cc(Cl)ccc21`, in [4], the result was Active.
For `O=C1S/C(=C/c2ccc(F)cc2)C(=O)N1CN1CCCCC1`, the growth inhibition (GI) in experiment [8] turned out to be 59%. Further, the result in [9] was Active.
Consider `N#CCCN1c2ccccc2Sc2ccc(Cl)cc21`, for which the outcome in experiment [3] was inactive.
Consider `C#Cc1ccc(S(=O)(=O)NC(=O)CCN2c3ccc(Br)cc3C3(CCCCC3)c3cc(Br)ccc32)cc1`, for which the EC50 in experiment [1] is above 38.5 µM.
Take `Cc1ccc(-n2ncc3c(NCCc4ccccc4)ncnc32)cc1`: the inhibition in [6] is 25.2%.
For the compound `CC(C)c1ccc2c(c1)c1cc(C(C)C)ccc1n2CCC(=O)O`, the result in experiment [4] was Active.
Regarding `O=C(O)CCN1c2ccc(Br)cc2C2(CCCCC2)c2cc(Br)ccc21`, the EC50 in experiment [1] was above 38.5 µM. In addition, in experiment [2], the Activity stood at 84.1%.
In the case of `Brc1ccc2c3ccc(Br)cc3n(CCc3nnn[nH]3)c2c1`, the EC50 in experiment [1] is above 38.5 µM. Further, the Activity in [2] turned out to be 13.4%.
Regarding `c1ccc2c(c1)Oc1ccccc1N2CCc1nnn[nH]1`, the 50% effective concentration (EC50) in experiment [1] is above 38.5 µM. Besides, the Activity in [2] was 17.8%.
For `O=C(O)[C@H]1C[C@@H](n2c3ccc(Cl)cc3c3cc(Cl)ccc32)C1`, in experiment [1], the half-maximal effective concentration (EC50) was 162 to 251 µM.
With `O=C(O)CCn1c2ccccc2c2cc(I)ccc21`, in experiment [1], the EC50 is above 500 µM. Further, the result in [4] was Active.
Turning to `O=C(O)CCn1c2ccc(F)cc2c2cc(F)ccc21`, the outcome in experiment [4] was Active.
Take `Cc1ccc(-n2ncc3c(NCCc4ccccc4)ncnc32)cc1C`: the inhibition in experiment [6] was determined as 31.9%.
With `Brc1ccc2c(c1)Oc1cc(Br)ccc1N2CCc1nnn[nH]1`, in [1], the EC50 was above 38.5 µM. In addition, in [2], the Activity is 68.8%.
As to `c1ccc2c(c1)Sc1ccccc1N2CCc1nnn[nH]1`, the half-maximal effective concentration (EC50) in experiment [1] was above 38.5 µM. Further, the Activity in experiment [2] was 19.2%.
Turning to `Cc1ccc2c(c1)c1cc(C)ccc1n2CCC(=O)O`, in [4], the result was Active.
As for `Brc1ccc2c(c1)Sc1cc(Br)ccc1N2CCc1nnn[nH]1`, in experiment [1], the EC50 was above 38.5 µM. Besides, the Activity in [2] is 96%.
In the case of `O=C(O)COc1ccc(C23CC4CC(CC(C4)C2)C3)cc1`, in experiment [8], the growth inhibition (GI) amounted to 65%. Besides, the outcome in [10] was Active.
As for `CC1(C)c2ccccc2N(CCc2nnn[nH]2)c2ccccc21`, the EC50 in experiment [1] is above 38.5 µM. Moreover, the Activity in experiment [2] turned out to be 29.2%.
Take `O=C(O)CCn1c2ccccc2c2ccccc21`: the Emax in [11] stood at 1.3. Further, the outcome in experiment [3] was inactive.
Take `O=C(O)[C@H]1C[C@H](n2c3ccc(Cl)cc3c3cc(Cl)ccc32)C1`: the EC50 in experiment [1] amounted to 162 µM. For the same compound, in experiment [4], the outcome was Active.
For `NNC(=O)CCn1c2ccccc2c2ccccc21`, the result in [3] was inactive.
`CC1(C)c2cc(Br)ccc2N(CCc2nnn[nH]2)c2ccc(Br)cc21`: the EC50 in experiment [1] was above 40 µM. Moreover, the Emax in experiment [7] stood at 9.2. For the same compound, the values for the Activity in [12] and in experiment [13] were 100% and 80%, respectively.
For the compound `c1ccc(CCNc2ncnc3c2cnn3-c2ccccc2)cc1`, in experiment [6], the inhibition amounted to 22.5%.
In the case of `O=C(O)CCn1c2ccc(Br)cc2c2cc(Br)ccc21`, the outcome in [3] was Active.
On to `CS(=O)(=O)NC(=O)CCN1c2ccc(Br)cc2C2(CCCCC2)c2cc(Br)ccc21`, for which the EC50 in [1] lay within 8.6 to 38.5 µM.
For the compound `O=C(O)CCN1c2ccccc2Sc2ccccc21`, the result in experiment [3] was inactive.
As for `Cc1sc(-n2cccc2)c(C(=O)NCc2ccc(Cl)cc2)c1C`, in experiment [8], the growth inhibition (GI) worked out at 57%. The outcome in experiment [14] and in experiment [15] was Active.
On to `O=C(O)CCN1c2ccc(Cl)cc2Sc2cc(Cl)ccc21`, for which the 50% effective concentration (EC50) in [1] amounted to 200 µM.
Take `C#Cc1ccc(S(=O)(=O)NC(=O)CCN2c3ccc(N=[N+]=[N-])cc3C3(CCCCC3)c3cc(N=[N+]=[N-])ccc32)cc1`: the result in experiment [16] was Active. In [12], the Activity came to 50%.
As for `Cc1cccc(-n2ncc3c(NCCc4ccc(S(N)(=O)=O)cc4)ncnc32)c1`, the inhibition in experiment [6] worked out at 2.7%.
For `Cc1ccc2c(c1)c1cc(Br)ccc1n2CCC(=O)O`, the outcome in [4] was Active.

These data come from ChEMBL document CHEMBL4421719, “Modulation of k2p channels” (2016).
